Measurements taken from patent publication US20040259159A1, “Role of LDL receptor protein-1 (LRP-1) in Alzheimer's disease” (priority 2000, published 2004).
Where a SMILES comes first, the peptide text is derived from it. The star is where a group is joined. Cbz = O=C(OCc1ccccc1)*

How the values were obtained:
[1] = system: LRP-1; experiment: Pulse chase of [35S]-methionine labeled LRP-1 in human brain endothelial cells (half-life); type: cell-based
Procedure: Human BEC (4×10^5) were pulsed for 1 hr at 37° C. with 400 μCi of [35S]-methionine (greater than 1000 Ci/mmol; Perkin Elmer, Boston, Mass.) in methionine-free Dulbecco modified Eagle medium (GIBCO BRL, New York, N.Y.). Cells were chased at indicated times within 48 hr. Cell lysates were immunoprecipitated with anti-LRP-1 515 kDa α-chain specific IgG (8G1) on SDS-PAGE. The intensity of signal was quantified in pixels using Storm 860 Phosphoimager (Amersham Biosciences, Piscataway, N.J.).

[2] = Brain clearance model in mice: efflux of 125I-Aβ1-40 and 14C-inulin after intracerebral microinjection; type: in vivo, mice
Procedure: Male C57BL/6 wild-type mice, 8-10 weeks old and 9-10 months old, and male apoE knockout mice (apoE KO) on a C57BL/6 background (Taconic Farm, German-town, N.Y.), 8-10 weeks old and 9-10 months old, were studied.
A stainless steel guide cannula was implanted stereotaxically into the right caudate-putamen of anesthetized mice (60 mg/kg i.p. sodium pentobarbital). Coordinates for the tip of the cannula were 0.9 mm anterior and 1.9 mm lateral to bregma and 2.9 mm below the surface of the brain. The guide cannula and screw were fixed to the skull with methylmethacrylate (Plastics One, Roanoke, Va.) and a stylet introduced into the guide cannula.
(§1) For radioisotope injection, animals were re-anesthetized and an injector cannula (Plastic One, Roanoke, Va.) attached with 24G-TEFLON tubing (Small Parts, Miami Lake, Fla.) to a 10 μl gas-tight microsyringe (Hamilton, Reno, Nev.) was used. The amount of injected tracers was determined accurately using a micrometer to measure linear displacement of the syringe plunger in the precalibrated microsyringe. […] When the effects of different molecular reagents were tested, those were injected simultaneously with the radiolabeled peptides.
The analysis of radioactivity-disappearance curves from the brain was as reported (40, 43). The percentage of radioactivity remaining in the brain after microinjection was determined from eq. 1 as % Recovery in brain=100×(Nb/Ni) where, Nb is the radioactivity remaining in the brain at the end of the experiment and Ni is the radioactivity injected into the brain.
Inulin was studied as a metabolically inert polar reference marker that is neither transported across the BBB nor retained by the brain (40); its clearance rate, i.e., kinulin, provides a measure of the ISF bulk flow and is calculated as Nb(inulin)/Ni(inulin)=exp (−kinulin*t) (2).
For Aβ, there are two possible physiological pathways of elimination—direct transport across the BBB into the bloodstream and elimination by ISF bulk flow into the CSF and cervical lymphatics. It is also possible that Aβ is retained within the brain either by binding to its cell surface receptors directly as a free peptide and/or by binding to different transport proteins. Thus, according to the model, the fraction of Aβ remaining in the brain can be expressed as Nb(Aβ)/Ni(Aβ)=a1+a2*e^−k1*t (3), where a1=k2/(k1+k2) and a2=k1/(k1+k2), and k1 and k2 denote the fractional coefficients of total efflux from the brain and retention within the brain, respectively.
The fractional rate constant of Aβ efflux across the BBB from brain parenchyma can be calculated by knowing the fractional rate coefficient of total efflux of Aβ and inulin as k3=k1−k(inulin) (4), i.e., as the difference between the fractional rate constant for total efflux of Aβ and the fractional rate constant of inulin. The half-saturation concentration for the elimination of Aβ by transport across the BBB, k0.5, was calculated from the equation [1−(Nb/Ni)]*100=Clmax/(k0.5+Ni) (5), where Clmax represents the maximal efflux capacity for the saturable component of Aβ clearance across the BBB corrected for peptide clearance by the ISF flow. Clmax is expressed as a percentage of the injected dose, [1−(Nb/Ni)]×100, cleared from brain by saturable BBB transport over 30 min.
The MLAB mathematical modeling system (Civilized Software, Silver Spring, Md.) was used to fit the compartmental model to the disappearance curves or percent recovery data with inverse square weighting.

[3] = design: species or system mice; conditions: mouse, in vivo
Procedure: Brain, blood and CSF were sampled and prepared for radioactivity analysis. […] Brain, plasma and CSF samples were mixed with TCA (final concentration 10%), centrifuged at 14,000 rpm at 4° C. for 8 min to 10 min, and radioactivity in the precipitate, water and chloroform fractions determined in gamma counter (Wallac, Turku, Finland).
The supernatant was then lyophilized. The resulting material was dissolved in 0.005% TFA in water, pH 2, before injection onto a C4 column (Vydac, The Separation Group, Hesperia, Calif.). […] Column eluants were monitored at 214 nm. The eluted fractions were collected and counted.
For SDS-PAGE analysis, TCA precipitated samples were resuspended in 1% SDS, vortexed and incubated at 55° C. for 5 min, then neutralized, boiled for 3 min, homogenized and analyzed by electrophoresis in 10% Tris-tricine gels followed by fluorography.

[4] = system: LRP-1; experiment: LRP-1 levels in human brain endothelial cells exposed to Aβ (Western blot); type: cell-based; conditions: human BEC; for effect on LRP-1 levels (85 kDa β-subunit and 515 kDa α-subunit): greater than or equal to 1 μM, 48 hr; for effect on LRP-1 expression: low concentrations (less than 10 nM), within 48 hr
Procedure: Human brain endothelial cells (BEC) were isolated from rapid autopsies of neurologically normal young individuals after trauma. BECs were characterized and cultured, and then incubated with different Aβ isoforms at concentrations ranging from 1 nM to 20 μM within 48 hr. Cells were lysed and equal amounts of proteins (10 μg/mi) were separated by 10% denaturing polyacrylamide gel electrophoresis (SDS-PAGE), transferred onto nitrocellulose membrane, and probed with 5A6 (β-chain) or 8G1 (α-chain) human anti-LRP-1-specific IgGs. The relative density of each protein was determined by scanning densitometry using β-actin as an internal control.

[5] = system: brain clearance of ^125I-Aβ1-40; experiment: Effect of molecular reagents on brain clearance of 125I-Aβ1-40 at 30 min; type: in vivo, mice; conditions: 125I-Aβ1-40 12 nM
Procedure: as §1
The next set of experiments was designed to characterize the BBB transport system responsible for the transcytosis of Aβ. […] Clearance of ^14C-inulin was not affected by any of the studied molecular reagents.

## CC(C)C[C@@H](C=O)NC(=O)[C@H](CC(C)C)NC(=O)[C@H](CC(C)C)NC(=O)OCc1ccccc1 [MG132] (Cbz-Leu-Leu-Leu-aldehyde)
[1]; MG132 20 μM, both control and Aβ-treated cells
  effect on t1/2 for LRP-1: increased

## Aβ1-40: synthetic wild-type amyloid-β peptide of 40 amino acids; in clearance text it means the radioiodinated tracer
[2]; mouse
  half-saturation (K0.5) of the BBB efflux transport system: 15.3 nM
[2]; mouse, in vivo
  Retention in brain t½: 2.742 h
  Transport by BBB t½: 0.577 ± 0.06 h
  elimination rate from brain at less than 2 nM faster than at a load of 60 nM: 3.5 fold
  rate k of clearance from the brain higher than that for inulin: 7.9 fold
  reduction of brain clearance in 9-month old apoE KO mice: 46%
  reduction of brain clearance in 9-month old wild-type mice: 55%
  reduction of brain clearance in young (2-month old) apoE KO mice: 30%
[2]; mouse, in vivo, 5 h
  dose remaining sequestered within the CNS: 15.6%
[2]; mouse, not told
  Total Efflux t½ (half-time for brain efflux): 0.417 h
  difference in half-time of brain efflux versus inulin: 9.4 fold
[3]
  degradation/metabolism in brain ISF prior to BBB transport: not observed
[4]
  effect on LRP-1 levels (85 kDa β-subunit and 515 kDa α-subunit): progressively decreased
  effect on LRP-1 expression: do not alter significantly

## Aβ1-42: synthetic wild-type amyloid-β peptide of 42 amino acids
[4]
  effect on LRP-1 levels (85 kDa β-subunit and 515 kDa α-subunit): progressively decreased
  effect on LRP-1 expression: do not alter significantly
[1]; 20 μM, control 9.6 hr, human BEC
  t1/2 for LRP-1 in the presence of peptide: 6.4 h

## ^14C-Inulin
[2]; 60 nM
  Retention in brain k: None
  Retention in brain t½: None
  Transport by BBB t½: None
[2]; 60 nM 125I-Aβ1-40 with 14C-inulin, microinjection into caudate nucleus, mice
  Total Efflux k: 0.0029 ± 0.0002 min⁻¹
[2]; 60 nM, microinjection into caudate nucleus, young mice
  Total Efflux t½ (half-time for brain efflux): 3.983 ± 0.208 h
[2]; 60 nM, ISF bulk flow
  Transport by ISF k: 0.0029 ± 0.0002 min⁻¹
  Transport by ISF t½: 3.98 ± 0.208 h
[2]; 60 nM, k3=k1−k(inulin), eq. 4
  Transport by BBB k: None

## mutant Aβ (Dutch/Iowa4o): synthetic Aβ peptide of 40 amino acids with Dutch/Iowa double mutation E22Q/D23N
[4]
  effect on LRP-1 levels (85 kDa β-subunit and 515 kDa α-subunit): progressively decreased
  effect on LRP-1 expression: do not alter significantly

B1: RAP: receptor associated protein, chaperone that antagonizes binding of LRP ligands to LRP-1 and LRP-2 (protein, UniProt P30533 35-357, looked up)
Alpha-2-macroglobulin …: YSREKNQPKPSPKRESGEEFRMEKLNQLWEKAQRLHLPPVRLAELHADLKIQERDELAWKKLKLDGLDEDGEKEARLIRNLNVILAKYGLDGKKDARQVTSNSLSGTQEDGLDDPRLEKLWHKAKTSGKFSGEELDKLWREFLHHKEKVHEYNVLLETLSRTEEIHENVISPSDLSDIKGSVLHSRHTELKEKLRSINQGLDRLRRVSHQGYSTEAEFEEPRVIDLWDLAQSANLTDKELEAFREELKHFEAKIEKHNHYQKQLEIAHEKLRHAESVGDGERVSRSREKHALLEGRTKELGYTVKKHLQDLSGRISRARHNEL
[5]; RAP 200 nM, versus vehicle
  reduction in Aβ clearance from the brain: 30%
[5]; RAP 5 μM
  decrease in Aβ clearance from the brain: 44%
